According to patent publication US20110098177A1, “METHODS AND COMPOSITIONS OF PLANT MICRONUTRIENTS” (NOVUS INTERNATIONAL INC., priority 2006, published 2011):

How the values were obtained:
Assay type in all cases: in vivo
[1] = system: soybean plants (Asgrow 1102); assay: Visual greenness ratings (1-5 scale) of soybean plants, open-field (Examples 11-12)
Protocol: The following experiments were performed on soybean plants growing in open-field plots during the summer and fall of 2008 at two production fields in West Central Minnesota. […] Trial design was a randomized complete block with 4 replications. Each plot measured 10' by 30' and consisted of five 22'' rows. Although all five rows of each plot were treated, only the center three rows (25' in length) of each plot were machine harvested. The two fields selected for these studies had historical Iron Deficiency Chlorosis (IDC) issues. The two field sites were planted by farmers with elite Roundup Ready commodity type soybean varieties with IDC tolerance (Asgrow 1102, Monsanto Corp.). […] BIOX-M was applied at a rate of 1.12 kg Mn/ha. […] All V4 treatments were applied in 10 gallons per acre of water with a backpack sprayer with a hand boom designed to “band” apply product directly to the plant row. Three nozzles with ConeJet TXVS-2 tips were oriented on either side and over the top of each row. This maximized the applied product to the plant tissue itself and minimized application of product to the soil surface. […] The V6 treatments (where applicable) were applied in 20 gallons per acre of water to increase the suspension of the BIOX products.

[2] = system: soybean plants (Asgrow 1102); assay: ICP-MS micronutrient content of soybean trifoliates (Examples 11-12); parameters: Micronutrient content from ICP-MS analysis: Mn: unit not given here; details: for Micronutrient content from ICP-MS analysis: Fe: in ppm (unit assumed)
Protocol: The following experiments were performed on soybean plants growing in open-field plots during the summer and fall of 2008 at two production fields in West Central Minnesota. […] Trial design was a randomized complete block with 4 replications. Each plot measured 10' by 30' and consisted of five 22'' rows. Although all five rows of each plot were treated, only the center three rows (25' in length) of each plot were machine harvested. The two fields selected for these studies had historical Iron Deficiency Chlorosis (IDC) issues. The two field sites were planted by farmers with elite Roundup Ready commodity type soybean varieties with IDC tolerance (Asgrow 1102, Monsanto Corp.). […] BIOX-M was applied at a rate of 1.12 kg Mn/ha. […] All V4 treatments were applied in 10 gallons per acre of water with a backpack sprayer with a hand boom designed to “band” apply product directly to the plant row. Three nozzles with ConeJet TXVS-2 tips were oriented on either side and over the top of each row. This maximized the applied product to the plant tissue itself and minimized application of product to the soil surface. […] The V6 treatments (where applicable) were applied in 20 gallons per acre of water to increase the suspension of the BIOX products. […] The harvested plants were dried, ground, and subjected to Inductively Coupled Plasma-Mass Spectrometry (ICP-MS) analysis to determine plant micronutrient content.

[3] = system: soybean plants (Asgrow 1102); assay: Soybean seed yield (Examples 11-12)
Protocol: (§1) The following experiments were performed on soybean plants growing in open-field plots during the summer and fall of 2008 at two production fields in West Central Minnesota. […] Trial design was a randomized complete block with 4 replications. Each plot measured 10' by 30' and consisted of five 22'' rows. Although all five rows of each plot were treated, only the center three rows (25' in length) of each plot were machine harvested. The two fields selected for these studies had historical Iron Deficiency Chlorosis (IDC) issues. The two field sites were planted by farmers with elite Roundup Ready commodity type soybean varieties with IDC tolerance (Asgrow 1102, Monsanto Corp.). […] BIOX-M was applied at a rate of 1.12 kg Mn/ha. […] All V4 treatments were applied in 10 gallons per acre of water with a backpack sprayer with a hand boom designed to “band” apply product directly to the plant row. Three nozzles with ConeJet TXVS-2 tips were oriented on either side and over the top of each row. This maximized the applied product to the plant tissue itself and minimized application of product to the soil surface. […] The V6 treatments (where applicable) were applied in 20 gallons per acre of water to increase the suspension of the BIOX products. Soybean seed was harvested after soybean maturity was reached (3 October at […], and 17 Oct. 2008 at Foxhome) and seed yields for each experimental treatment group were determined. In addition, seed samples from each treatment were dried to 13% moisture content, then analyzed for protein and oil content.

[4] = system: soybean plants (Asgrow 1102); assay: Soybean seed protein and oil content (Examples 11-12); details: in %
Protocol: as §1

Tygress tomato plants [5] = assay: Foliar nutrient concentration 2 weeks after treatment, greenhouse tomato (Examples 4-6); details: Mn 1.0 lb/acre
Protocol: (§2) The following experiments were performed in a green house during the fall of 2008 and spring of 2009 at GCREC, Balm, University of Florida. Crop set-up, procedures and variables were as follows.
(§3) Transplants of Tygress' tomato plants were planted in 2-gallon pots filled with commercial planting medium with nutrient concentration of Fe, Zn, Mn, Cu being negligible and insufficient for crop growth. Irrigation and non-micronutrient fertilizer were provided daily through microsprinklers at recommended rates for tomato production in Florida. No pesticides were used. Treatments were as described in Tables 4, 5 and 6 below.
(§4) Treatments were applied at 5 WAT (weeks after transplanting) using a water volume of 200 mL/plant. A non-ionic surfactant was added. Foliar tissue analysis was performed at 3 and 7 WAT on the non-applied newest leaves. The concentrations of N, P, K, Mg, Ca, B, Zn, Mn, Fe, and Cu in the foliar tissue were determined from foliar analysis by a commercial laboratory at 2 weeks before treatment and again at 2 weeks after treatment.
(§5) Deionized water was used for foliar applications, and other nutrients were applied as appropriate under non-limiting conditions. Marketable fruit were collected three times during the growing season, starting at 10 WAT (5 weeks after the initial treatment). Tomato fruit was graded as extra-large, large and medium. Non-marketable fruit were harvested and number and weight recorded but not sized.
(§6) Experimental design was a randomized complete block design with 6 replications. Data were analyzed using a general linear model, and means were separated using an LSD test at the 5% significance level.

Tygress tomato plants [6] = assay: Yields of tomato fruits, greenhouse (Examples 4-6)
Protocol: as §2, §3, §4, §5, §6

EDDHA chelated iron [BIOX-EDDI, reference compound]
Mean visual greenness scores (1-5) ([1]; 2.23 kg/ha, V4, V6, Jul. 15, 2008 Rating, Foxhome): 2.1 | Mean visual greenness scores (1-5) ([1]; 2.23 kg/ha, V4, V6, Jul. 15, 2008 Rating, Renville): 2.9 | Mean visual greenness scores (1-5) ([1]; 2.23 kg/ha, V4, V6, Jul. 29, 2008 Rating, Foxhome): 1.0 C | Mean visual greenness scores (1-5) ([1]; 2.23 kg/ha, V4, V6, Jul. 29, 2008 Rating, Renville): 1.4 | Mean visual greenness scores (1-5) ([1]; 2.23 kg/ha, V4, Jul. 15, 2008 Rating, Foxhome): 2.8 | Mean visual greenness scores (1-5) ([1]; 2.23 kg/ha, V4, Jul. 15, 2008 Rating, Renville): 2.6 | Mean visual greenness scores (1-5) ([1]; 2.23 kg/ha, V4, Jul. 29, 2008 Rating, Foxhome): 2.0 A | Mean visual greenness scores (1-5) ([1]; 2.23 kg/ha, V4, Jul. 29, 2008 Rating, Renville): 1.3 | Greenness of soybean plants compared to control, statement ([1]; BIOX-EDDI applied at V4 only, Foxhome site, 29 July rating): not when applied at V4 only | Micronutrient content from ICP-MS analysis: Mn ([2]; 2.23 kg/ha, V4, V6, Foxhome): 66.03 | Micronutrient content from ICP-MS analysis: Fe ([2]; 2.23 kg/ha, V4, V6, Foxhome): 86.15 | Micronutrient content from ICP-MS analysis: Mn ([2]; 2.23 kg/ha, V4, V6, Renville): 91.09 | Micronutrient content from ICP-MS analysis: Fe ([2]; 2.23 kg/ha, V4, V6, Renville): 99.56 | Micronutrient content from ICP-MS analysis: Mn ([2]; 2.23 kg/ha, V4, Foxhome): 91.22 | Micronutrient content from ICP-MS analysis: Fe ([2]; 2.23 kg/ha, V4, Foxhome): 82.37 | Micronutrient content from ICP-MS analysis: Mn ([2]; 2.23 kg/ha, V4, Renville): 86.45 | Micronutrient content from ICP-MS analysis: Fe ([2]; 2.23 kg/ha, V4, Renville): 96.89 | Yield ([3]; 2.23 kg/ha, V4, V6, Foxhome): 45.28 Bu/A | Yield ([3]; 2.23 kg/ha, V4, V6, Renville): 24.15 Bu/A | Yield ([3]; 2.23 kg/ha, V4, Foxhome): 38.98 Bu/A | Yield ([3]; 2.23 kg/ha, V4, Renville): 27.19 Bu/A | Oil content (13% moisture) ([4]; 2.23 kg/ha, V4, V6, Foxhome): 18.56 | Protein content (13% moisture) ([4]; 2.23 kg/ha, V4, V6, Foxhome): 32.58 | Oil content (13% moisture) ([4]; 2.23 kg/ha, V4, V6, Renville): 19.97 | Protein content (13% moisture) ([4]; 2.23 kg/ha, V4, V6, Renville): 31.97 | Oil content (13% moisture) ([4]; 2.23 kg/ha, V4, Foxhome): 18.41 | Protein content (13% moisture) ([4]; 2.23 kg/ha, V4, Foxhome): 32.56 | Oil content (13% moisture) ([4]; 2.23 kg/ha, V4, Renville): 20.22 | Protein content (13% moisture) ([4]; 2.23 kg/ha, V4, Renville): 32.14

O=S(=O)([O-])[O-].[Mn+2] [BIOX-INM, manganese sulfate, reference compound]
B concentration in tomato leaves (Tygress tomato plants [5]; 2 weeks after Mn treatment): 25 ppm | Ca concentration in tomato leaves (Tygress tomato plants [5]; 2 weeks after Mn treatment): 0.6% | Cu concentration in tomato leaves (Tygress tomato plants [5]; 2 weeks after Mn treatment): 5 ppm | Fe concentration in tomato leaves (Tygress tomato plants [5]; 2 weeks after Mn treatment): 117 ppm | K concentration in tomato leaves (Tygress tomato plants [5]; 2 weeks after Mn treatment): 3.2% | Mg concentration in tomato leaves (Tygress tomato plants [5]; 2 weeks after Mn treatment): 0.3% | N concentration in tomato leaves (Tygress tomato plants [5]; 2 weeks after Mn treatment): 3.4% | P concentration in tomato leaves (Tygress tomato plants [5]; 2 weeks after Mn treatment): 0.6% | Zn concentration in tomato leaves (Tygress tomato plants [5]; 2 weeks after Mn treatment): 34 ppm | Foliar Mn concentration (Tygress tomato plants [5]; tomato leaves 2 weeks after Mn treatment): 80.9 a ppm | Marketable tomato yield compared with non-treated control (in words) (Tygress tomato plants [6]; BIOX-M at 1.23 lb/acre or more, BIOX-EDM at 2.0 lb/acre, Mn-sulfate at 1.0 lb/acre): significantly higher than the non-treated control | Marketable yield (Tygress tomato plants [6]; Mn 1.0 lb/acre, tomato fruits): 4.0 a lb/plant | Mean visual greenness scores (1-5) ([1]; 3.27 kg/ha, V4, Jul. 15, 2008 Rating, Foxhome): 3.0 | Mean visual greenness scores (1-5) ([1]; 3.27 kg/ha, V4, Jul. 15, 2008 Rating, Renville): 2.4 | Mean visual greenness scores (1-5) ([1]; 3.27 kg/ha, V4, Jul. 29, 2008 Rating, Foxhome): 1.5 A, B, C | Mean visual greenness scores (1-5) ([1]; 3.27 kg/ha, V4, Jul. 29, 2008 Rating, Renville): 1.0 | Micronutrient content from ICP-MS analysis: Mn ([2]; 3.27 kg/ha, V4, Foxhome): 86.58 | Micronutrient content from ICP-MS analysis: Fe ([2]; 3.27 kg/ha, V4, Foxhome): 87.35 | Micronutrient content from ICP-MS analysis: Mn ([2]; 3.27 kg/ha, V4, Renville): 83.90 | Micronutrient content from ICP-MS analysis: Fe ([2]; 3.27 kg/ha, V4, Renville): 101.17 | Yield ([3]; 3.27 kg/ha, V4, Foxhome): 45.05 Bu/A | Yield ([3]; 3.27 kg/ha, V4, Renville): 27.13 Bu/A | Oil content (13% moisture) ([4]; 3.27 kg/ha, V4, Foxhome): 18.32 | Protein content (13% moisture) ([4]; 3.27 kg/ha, V4, Foxhome): 32.63 | Oil content (13% moisture) ([4]; 3.27 kg/ha, V4, Renville): 19.80 | Protein content (13% moisture) ([4]; 3.27 kg/ha, V4, Renville): 32.36
